Drawing on patent US10407422B2, “Triazolopyridine inhibitors of myeloperoxidase” (priority 2015, dated 2019), this text covers IC50 for 29 molecules.

For assay [1], the target named is T1, myeloperoxidase (MPO) (Homo sapiens (Human), UniProt P05164). Nature of the assay: MPO peroxidation assay (Amplex Red assay). Format: biochemical. The note with it: potency range class. A digest of the protocol: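 IC50 values come from a four-parameter fit of rates taken from the linear 180-540 s portion of a 15 min kinetic read of resorufin (Ex 535/Em 590 nm). Amplex Red (200 μM) plus 10 mM H2O2 was added after a 10 min room-temperature preincubation of inhibitor with 200 pM MPO and 40 nM H2O2 in 100 mM KPi, pH 7.4.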

Assay [2] deals with T1, myeloperoxidase (MPO). Nature of the assay: MPO chlorination assay (APF assay). The note with it: potency range class. Format: biochemical. A digest of the protocol: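 Chlorinating activity followed by APF cleavage to fluorescein (485/535 nm, 3 min kinetic read) after adding APF and 10 μM H2O2. Beforehand, 200 pM enzyme, compound and 120 mM NaCl sat 10 min at room temperature in 100 mM KPi, pH 7.4. Initial-rate slopes gave % inhibition; IC50 by Hill-slope fit.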

T1 sequence (P05164 49-745): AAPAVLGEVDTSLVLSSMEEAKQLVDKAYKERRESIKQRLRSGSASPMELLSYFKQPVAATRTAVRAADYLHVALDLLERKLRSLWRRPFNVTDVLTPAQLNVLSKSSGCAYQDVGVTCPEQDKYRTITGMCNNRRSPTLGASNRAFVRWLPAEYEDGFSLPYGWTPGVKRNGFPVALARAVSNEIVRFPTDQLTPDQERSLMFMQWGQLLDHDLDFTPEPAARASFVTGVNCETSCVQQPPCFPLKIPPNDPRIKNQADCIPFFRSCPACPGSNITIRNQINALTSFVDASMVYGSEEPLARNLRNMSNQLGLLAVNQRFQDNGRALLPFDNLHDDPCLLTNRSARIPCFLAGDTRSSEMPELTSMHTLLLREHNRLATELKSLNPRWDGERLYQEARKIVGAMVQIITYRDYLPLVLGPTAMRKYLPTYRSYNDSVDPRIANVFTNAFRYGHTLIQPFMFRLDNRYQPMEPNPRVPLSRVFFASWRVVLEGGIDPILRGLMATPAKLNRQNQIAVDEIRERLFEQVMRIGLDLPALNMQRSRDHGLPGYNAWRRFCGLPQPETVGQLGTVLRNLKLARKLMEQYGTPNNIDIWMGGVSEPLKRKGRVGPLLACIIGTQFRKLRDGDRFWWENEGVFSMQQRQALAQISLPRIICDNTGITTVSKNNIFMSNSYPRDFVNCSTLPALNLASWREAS

As for `Nc1cc(Cc2cnn(Cc3ccc(N4CCOCC4)cc3)c2)c2nn[nH]c2n1` [Example 111, 7-((1-(4-Morpholinobenzyl)-1H-pyrazol-4-yl)methyl)-3H-[1,2,3]triazolo[4,5-b]pyridin-5-amine], the half-inhibitory concentration (IC50) (usually the midpoint of a concentration-inhibition curve) in assay [1] fell in the range of 1000 to 10000 nM; in assay [2] it was 101 to 999 nM.

As to `CN1CCN(c2ccc(Cn3cc(Cc4cc(N)nc5[nH]nnc45)cn3)cc2)CC1` [Example 112, 7-((1-(4-(4-Methylpiperazin-1-yl)benzyl)-1H-pyrazol-4-yl)methyl)-3H-[1,2,3]triazolo[4,5-b]pyridin-5-amine], the IC50 in assay [1] is 1 to 100 nM; in assay [2], 101 to 999 nM.

With `CC(C)(C)c1ccc(Cn2cc(Cc3cc(N)nc4[nH]nnc34)cn2)cc1` [Example 113, 7-((1-(4-(tert-Butyl)benzyl)-1H-pyrazol-4-yl)methyl)-3H-[1,2,3]triazolo[4,5-b]pyridin-5-amine], the half-inhibitory concentration (IC50) in assay [1] was in the range of 1 to 100 nM; in assay [2], 101 to 999 nM.

Regarding `Cc1nn(-c2ccccc2)nc1Cn1cc(Cc2cc(N)nc3[nH]nnc23)cn1` [Example 114, 7-((1-((5-Methyl-2-phenyl-2H-1,2,3-triazol-4-yl)methyl)-1H-pyrazol-4-yl)methyl)-3H-[1,2,3]triazolo[4,5-b]pyridin-5-amine], the values for the half-inhibitory concentration (IC50) in assay [1] and in assay [2] were 1 to 100 nM and 101 to 999 nM, respectively.

On to `Nc1cc(Cc2cnn(Cc3cnn(-c4ccccn4)c3)c2)c2nn[nH]c2n1` [Example 115, 7-((1-((1-(Pyridin-2-yl)-1H-pyrazol-4-yl)methyl)-1H-pyrazol-4-yl)methyl)-3H-[1,2,3]triazolo[4,5-b]pyridin-5-amine], for which the IC50 in assay [1] is 1 to 100 nM; in assay [2], 101 to 999 nM.

On to `Nc1cc(Cc2cnn(Cc3cn(-c4ccccc4)nn3)c2)c2nn[nH]c2n1` [Example 116, 7-((1-((1-Phenyl-1H-1,2,3-triazol-4-yl)methyl)-1H-pyrazol-4-yl)methyl)-3H-[1,2,3]triazolo[4,5-b]pyridin-5-amine], for which the IC50 lay in the range of 1 to 100 nM in assay [1] and 101 to 999 nM in assay [2].

Take `Nc1cc(Cc2cnn(Cc3ccc(Cl)cc3Cl)c2)c2nn[nH]c2n1` [Example 117, 7-((1-(2,4-Dichlorobenzyl)-1H-pyrazol-4-yl)methyl)-3H-[1,2,3]triazolo[4,5-b]pyridin-5-amine]: the IC50 in assay [1] fell in the range of 1 to 100 nM; in assay [2] it was 101 to 999 nM.

Turning to `Nc1cc(Cc2cnn(CC3Cc4ccccc4C3)c2)c2nn[nH]c2n1` [Example 118, 7-((1-((2,3-Dihydro-1H-inden-2-yl)methyl)-1H-pyrazol-4-yl)methyl)-3H-[1,2,3]triazolo[4,5-b]pyridin-5-amine], the IC50 in assay [1] and in assay [2] was 1 to 100 nM in each case.

For the molecule `Cc1nc(-c2ccc(Cl)cc2)sc1Cn1cc(Cc2cc(N)nc3[nH]nnc23)cn1` [Example 119, 7-((1-((2-(4-Chlorophenyl)-4-methylthiazol-5-yl)methyl)-1H-pyrazol-4-yl)methyl)-3H-[1,2,3]triazolo[4,5-b]pyridin-5-amine], the IC50 in assay [1] fell in the range of 1 to 100 nM; in assay [2], 101 to 999 nM.

As to `Nc1cc(Cc2cnn(Cc3nc(-c4ccccc4)no3)c2)c2nn[nH]c2n1` [Example 120, 7-((1-((3-Phenyl-1,2,4-oxadiazol-5-yl)methyl)-1H-pyrazol-4-yl)methyl)-3H-[1,2,3]triazolo[4,5-b]pyridin-5-amine], the IC50 in assay [1] was in the range of 1 to 100 nM; in assay [2], 101 to 999 nM.

Turning to `Nc1cc(Cc2cnn(Cc3cc(-c4ccccc4)on3)c2)c2nn[nH]c2n1` [Example 121, 7-((1-((5-Phenylisoxazol-3-yl)methyl)-1H-pyrazol-4-yl)methyl)-3H-[1,2,3]triazolo[4,5-b]pyridin-5-amine], the values for the IC50 in assay [1] and in assay [2] were 1 to 100 nM and 101 to 999 nM, respectively.

On to `CS(=O)(=O)c1cccc(Cn2cc(Cc3cc(N)nc4[nH]nnc34)cn2)c1` [Example 122, 7-((1-(3-(Methylsulfonyl)benzyl)-1H-pyrazol-4-yl)methyl)-3H-[1,2,3]triazolo[4,5-b]pyridin-5-amine], for which the results for the 50% inhibitory concentration (IC50) in assay [1] and in assay [2] were 1 to 100 nM and 101 to 999 nM, respectively.

Consider `Nc1cc(Cc2cnn(Cc3cccc(-c4ccccc4)n3)c2)c2nn[nH]c2n1` [Example 123, 7-((1-((6-Phenylpyridin-2-yl)methyl)-1H-pyrazol-4-yl)methyl)-3H-[1,2,3]triazolo[4,5-b]pyridin-5-amine], for which the half-maximal inhibitory concentration (IC50) in assay [1] and in assay [2] was 1 to 100 nM throughout.

Turning to `Nc1cc(Cc2cnn(Cc3cccc(-c4cccnc4)c3)c2)c2nn[nH]c2n1` [Example 124, 7-((1-(3-(Pyridin-3-yl)benzyl)-1H-pyrazol-4-yl)methyl)-3H-[1,2,3]triazolo[4,5-b]pyridin-5-amine], the IC50 in assay [1] and in assay [2] was 1 to 100 nM each time.

For `Nc1cc(Cc2cnn(Cc3cncc(-c4ccccc4)c3)c2)c2nn[nH]c2n1` [Example 125, 7-((1-((5-Phenylpyridin-3-yl)methyl)-1H-pyrazol-4-yl)methyl)-3H-[1,2,3]triazolo[4,5-b]pyridin-5-amine], the 50% inhibitory concentration (IC50) in assay [1] and in assay [2] was 1 to 100 nM throughout.

Take `Nc1cccc(Cn2cc(Cc3cc(N)nc4[nH]nnc34)cn2)c1` [Example 126, 7-((1-(3-Aminobenzyl)-1H-pyrazol-4-yl)methyl)-3H-[1,2,3]triazolo[4,5-b]pyridin-5-amine]: the IC50 in assay [1] was in the range of 1 to 100 nM; in assay [2] it was 101 to 999 nM.

Regarding `Nc1cc(Cc2cnn(Cc3ccc4cnccc4c3)c2)c2nn[nH]c2n1` [Example 127, 7-((1-(Isoquinolin-6-ylmethyl)-1H-pyrazol-4-yl)methyl)-3H-[1,2,3]triazolo[4,5-b]pyridin-5-amine], the IC50 in assay [1] and in assay [2] was 101 to 999 nM throughout.

With `Nc1cc(Cc2cnn(Cc3ccc4ncccc4c3)c2)c2nn[nH]c2n1` [Example 128, 7-((1-(Quinolin-6-ylmethyl)-1H-pyrazol-4-yl)methyl)-3H-[1,2,3]triazolo[4,5-b]pyridin-5-amine], the IC50 was in the range of 1 to 100 nM in assay [1] and 101 to 999 nM in assay [2].

Consider `CC(C)(C)OC(=O)N1CCc2cc(Cn3cc(Cc4cc(N)nc5[nH]nnc45)cn3)ccc2C1` [Example 129, tert-Butyl 6-((4-((5-amino-3H-[1,2,3]triazolo[4,5-b]pyridin-7-yl)methyl)-1H-pyrazol-1-yl)methyl)-3,4-dihydroisoquinoline-2(1H)-carboxylate], for which the values for the IC50 in assay [1] and in assay [2] were 101 to 999 nM and 1000 to 10000 nM, respectively.

As for `Nc1cc(Cc2cnn(Cc3ccc4c(c3)CCN(C(=O)c3ncc[nH]3)C4)c2)c2nn[nH]c2n1` [Example 131, (6-((4-((5-Amino-3H-[1,2,3]triazolo[4,5-b]pyridin-7-yl)methyl)-1H-pyrazol-1-yl)methyl)-3,4-dihydroisoquinolin-2(1H)-yl)(1H-imidazol-2-yl)methanone], the IC50 in assay [1] and in assay [2] was 101 to 999 nM in each case.

Consider `Nc1cc(Cc2cnn(Cc3ccc4[nH]c(=O)ccc4c3)c2)c2nn[nH]c2n1` [Example 132, 6-((4-((5-Amino-3H-[1,2,3]triazolo[4,5-b]pyridin-7-yl)methyl)-1H-pyrazol-1-yl)methyl)quinolin-2(1H)-one], for which the IC50 in assay [1] and in assay [2] was 1 to 100 nM each time.

For the molecule `Nc1cc(Cc2cnn(Cc3cccc(-c4ccccn4)c3)c2)c2nn[nH]c2n1` [Example 133, 7-[(1-{[3-(Pyridin-2-yl)phenyl]methyl}-1H-pyrazol-4-yl)methyl]-3H-[1,2,3]triazolo[4,5-b]pyridin-5-amine], the half-inhibitory concentration (IC50) in assay [1] and in assay [2] was 1 to 100 nM throughout.

Take `CC(C)(C)c1cccc(Cn2cc(Cc3cc(N)nc4[nH]nnc34)cn2)c1` [Example 134, 7-({1-[(3-tert-Butylphenyl)methyl]-1H-pyrazol-4-yl}methyl)-3H-[1,2,3]triazolo[4,5-b]pyridin-5-amine]: the half-inhibitory concentration (IC50) in assay [1] and in assay [2] was 1 to 100 nM in each case.

`Nc1cc(Cc2cnn(Cc3cccc4c3CCCC4)c2)c2nn[nH]c2n1` [Example 135, 7-{[1-(5,6,7,8-Tetrahydronaphthalen-1-ylmethyl)-1H-pyrazol-4-yl]methyl}-3H-[1,2,3]triazolo[4,5-b]pyridin-5-amine]: the IC50 in assay [1] and in assay [2] was 1 to 100 nM each time.

In the case of `Nc1cc(Cc2cnn(CC3CCc4ccccc4C3)c2)c2nn[nH]c2n1` (stereo not shown) [Example 136, 7-{[1-(1,2,3,4-Tetrahydronaphthalen-2-ylmethyl)-1H-pyrazol-4-yl]methyl}-3H-[1,2,3]triazolo[4,5-b]pyridin-5-amine], the IC50 in assay [1] and in assay [2] was 1 to 100 nM throughout.

In the case of `Cn1nc(Cn2cc(Cc3cc(N)nc4[nH]nnc34)cn2)c2ccccc21` [Example 137, 7-({1-[(1-Methyl-1H-indazol-3-yl)methyl]-1H-pyrazol-4-yl}methyl)-3H-[1,2,3]triazolo[4,5-b]pyridin-5-amine], the IC50 was 1 to 100 nM in assay [1] and 101 to 999 nM in assay [2].

For the molecule `CCn1c(Cn2cc(Cc3cc(N)nc4[nH]nnc34)cn2)nc2ccccc21` [Example 138, 7-((1-((1-Ethyl-1H-benzo[d]imidazol-2-yl)methyl)-1H-pyrazol-4-yl)methyl)-3H-[1,2,3]triazolo[4,5-b]pyridin-5-amine], the results for the half-maximal inhibitory concentration (IC50) in assay [1] and in assay [2] were 1 to 100 nM and 101 to 999 nM, respectively.

For the molecule `CC1CCN(S(=O)(=O)c2cccc(Cn3cc(Cc4cc(N)nc5[nH]nnc45)cn3)c2)CC1` [Example 139, 7-{[1-({3-[(4-Methylpiperidin-1-yl)sulfonyl]phenyl}methyl)-1H-pyrazol-4-yl]methyl}-3H-[1,2,3]triazolo[4,5-b]pyridin-5-amine], the values for the IC50 in assay [1] and in assay [2] were 1 to 100 nM and 101 to 999 nM, respectively.

On to `Cc1cncc(Oc2cccc(Cn3cc(Cc4cc(N)nc5[nH]nnc45)cn3)c2)n1` [Example 140, 7-{[1-({3-[(6-Methylpyrazin-2-yl)oxy]phenyl}methyl)-1H-pyrazol-4-yl]methyl}-3H-[1,2,3]triazolo[4,5-b]pyridin-5-amine], for which the IC50 in assay [1] was in the range of 1 to 100 nM; in assay [2], 101 to 999 nM.
